This is an account of results in patent publication US8471005B2 (Cephalon, Inc., priority 2008, dated 2013).

Molecules are shown by their SMILES. pIC50: −log10 of the molar value.

Test [1] deals with T1, ALK (Homo sapiens, UniProt Q9UM73).
T1 construct: host or cells: baculovirus expression system
The test is described as follows: ALK Kinase Assay (ELISA/TRF, PLC-γ substrate). As to conditions: ALK kinase inhibition, 1 μM ATP; read-out: ALK Potency. The test is classed as biochemical. An outline of the steps: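 PLC-γ substrate coated at 10 μg/mL in TBS; reaction started with 30 ng/ml ALK, run 15 min at 37° C. Phosphoproduct detected by TRF with Eu-N1-labeled PT66 anti-phosphotyrosine antibody. IC50 from sigmoidal variable-slope fit of percent inhibition versus log concentration.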
In general terms: An ELISA detects its analyte on a solid surface through an enzyme-linked reagent.

Test [2] deals with T2, JAK2 (Homo sapiens, UniProt O60674).
T2 construct: host or cells: baculovirus expression system
The test is described as follows: Recombinant Human JAK2 Kinase Assay (TRF). The test is classed as biochemical. As to conditions: JAK2 kinase inhibition, 0.2 μM ATP; read-out: JAK2 Potency. An outline of the steps: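 TRF read-out: Eu-N1 PY100 anti-phosphotyrosine antibody detects product. Enzyme is baculovirus-expressed JAK2 at 15 ng/ml; substrate is a biotinyl 15-mer peptide bound to Neutravidin-coated wells. Buffer 20 mM HEPES pH 7.2, 0.2 μM ATP, 1 mM MnCl2, 0.1% BSA, 2.5% DMSO final; 20 min, RT.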

T1 sequence (Q9UM73 19-1620): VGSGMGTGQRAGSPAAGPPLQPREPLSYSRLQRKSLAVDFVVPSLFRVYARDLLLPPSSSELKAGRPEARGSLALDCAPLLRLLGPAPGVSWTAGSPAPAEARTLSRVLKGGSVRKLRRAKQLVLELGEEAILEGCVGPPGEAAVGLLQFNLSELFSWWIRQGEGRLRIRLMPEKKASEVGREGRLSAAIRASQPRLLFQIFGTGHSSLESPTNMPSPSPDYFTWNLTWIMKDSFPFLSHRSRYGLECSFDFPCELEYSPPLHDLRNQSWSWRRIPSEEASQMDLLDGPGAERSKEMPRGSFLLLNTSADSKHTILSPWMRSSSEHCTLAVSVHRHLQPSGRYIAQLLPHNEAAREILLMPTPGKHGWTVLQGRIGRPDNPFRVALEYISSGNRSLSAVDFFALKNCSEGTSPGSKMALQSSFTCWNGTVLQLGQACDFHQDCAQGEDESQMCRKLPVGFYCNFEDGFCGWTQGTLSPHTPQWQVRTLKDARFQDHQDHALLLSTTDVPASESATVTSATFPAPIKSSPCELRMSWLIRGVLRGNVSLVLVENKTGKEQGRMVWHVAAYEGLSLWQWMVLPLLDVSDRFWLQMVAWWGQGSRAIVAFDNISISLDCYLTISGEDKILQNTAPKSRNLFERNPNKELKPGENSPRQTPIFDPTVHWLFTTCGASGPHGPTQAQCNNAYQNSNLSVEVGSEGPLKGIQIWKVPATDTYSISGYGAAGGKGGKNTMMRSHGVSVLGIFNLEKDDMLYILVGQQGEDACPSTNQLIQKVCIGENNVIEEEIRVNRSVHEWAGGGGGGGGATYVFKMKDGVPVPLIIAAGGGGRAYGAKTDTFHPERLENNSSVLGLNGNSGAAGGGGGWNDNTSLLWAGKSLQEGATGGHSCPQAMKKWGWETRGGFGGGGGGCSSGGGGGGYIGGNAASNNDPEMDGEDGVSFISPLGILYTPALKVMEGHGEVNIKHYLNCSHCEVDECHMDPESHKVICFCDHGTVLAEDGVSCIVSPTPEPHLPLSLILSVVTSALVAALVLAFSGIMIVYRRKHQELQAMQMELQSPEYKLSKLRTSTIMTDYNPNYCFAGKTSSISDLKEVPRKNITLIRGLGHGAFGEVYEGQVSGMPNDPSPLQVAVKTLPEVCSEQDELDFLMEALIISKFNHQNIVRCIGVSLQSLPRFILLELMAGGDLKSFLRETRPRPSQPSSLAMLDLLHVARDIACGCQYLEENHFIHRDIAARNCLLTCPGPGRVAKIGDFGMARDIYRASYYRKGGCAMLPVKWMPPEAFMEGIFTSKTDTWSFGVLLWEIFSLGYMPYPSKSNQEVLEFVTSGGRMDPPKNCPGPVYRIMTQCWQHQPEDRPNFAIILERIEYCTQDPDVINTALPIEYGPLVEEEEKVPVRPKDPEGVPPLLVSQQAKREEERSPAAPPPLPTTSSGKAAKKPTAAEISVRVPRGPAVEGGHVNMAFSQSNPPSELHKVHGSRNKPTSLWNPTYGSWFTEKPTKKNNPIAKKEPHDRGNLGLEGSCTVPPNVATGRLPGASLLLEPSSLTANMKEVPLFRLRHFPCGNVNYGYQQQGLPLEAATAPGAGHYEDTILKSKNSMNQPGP
T2 sequence (O60674 whole entry): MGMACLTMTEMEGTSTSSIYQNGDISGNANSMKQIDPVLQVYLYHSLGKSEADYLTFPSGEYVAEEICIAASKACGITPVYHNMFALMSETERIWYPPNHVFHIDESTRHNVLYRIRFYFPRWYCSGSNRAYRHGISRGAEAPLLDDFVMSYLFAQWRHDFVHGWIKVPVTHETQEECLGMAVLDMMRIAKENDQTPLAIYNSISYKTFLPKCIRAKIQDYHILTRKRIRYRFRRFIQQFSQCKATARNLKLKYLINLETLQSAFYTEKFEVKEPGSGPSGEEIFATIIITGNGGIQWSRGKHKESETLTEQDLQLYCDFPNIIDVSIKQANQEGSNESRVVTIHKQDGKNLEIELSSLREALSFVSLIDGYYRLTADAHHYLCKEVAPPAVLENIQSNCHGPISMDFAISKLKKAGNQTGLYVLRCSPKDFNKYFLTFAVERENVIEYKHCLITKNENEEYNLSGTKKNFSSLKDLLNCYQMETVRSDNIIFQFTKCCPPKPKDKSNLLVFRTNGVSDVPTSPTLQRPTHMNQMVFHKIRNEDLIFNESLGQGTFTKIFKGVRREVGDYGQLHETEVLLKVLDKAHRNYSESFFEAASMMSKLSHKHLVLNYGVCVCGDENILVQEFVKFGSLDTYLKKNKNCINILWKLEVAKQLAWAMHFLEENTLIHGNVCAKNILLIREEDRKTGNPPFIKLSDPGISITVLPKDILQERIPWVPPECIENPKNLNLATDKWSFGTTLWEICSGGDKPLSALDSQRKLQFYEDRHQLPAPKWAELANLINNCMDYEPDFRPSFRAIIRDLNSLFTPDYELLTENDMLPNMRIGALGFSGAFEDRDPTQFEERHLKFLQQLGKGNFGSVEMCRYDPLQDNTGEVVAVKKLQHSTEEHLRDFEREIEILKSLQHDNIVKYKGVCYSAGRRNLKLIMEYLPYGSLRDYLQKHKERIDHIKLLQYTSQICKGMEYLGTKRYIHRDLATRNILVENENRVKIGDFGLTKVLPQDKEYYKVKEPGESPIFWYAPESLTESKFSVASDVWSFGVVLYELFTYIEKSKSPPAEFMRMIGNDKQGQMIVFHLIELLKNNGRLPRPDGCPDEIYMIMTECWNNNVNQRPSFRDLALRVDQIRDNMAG

With `COc1ccc(-c2ccc3cnc(Nc4ccc(Cl)c(CN5CCOCC5)c4)nn23)cn1` [Example 973, (4-Chloro-3-morpholin-4-ylmethyl-phenyl)-[7-(6-methoxy-pyridin-3-yl)-pyrrolo[2,1-f][1,2,4]triazin-2-yl]-amine], the pIC50 in test [1] was less than 5.00; in test [2], greater than 7.00.
The corresponding values for `COc1ccc(-c2ccc3cnc(Nc4cccc(C#N)c4)nn23)cn1` [Example 974, 3-[7-(6-Methoxy-pyridin-3-yl)pyrrolo[2,1f][1,2,4]triazin-2-ylamino]-benzonitrile] are 5.00 to 6.00 and greater than 7.00.
`COc1ccc(-c2ccc3cnc(Nc4cccc(NCC(N)=O)c4)nn23)cn1` [Example 975, 2-{3-[7-(6-Methoxy-pyridin-3-yl)-pyrrolo[2,1-f][1,2,4]triazin-2-ylamino]-phenylamino}-acetamide]: the pIC50 in test [1] is 5.00 to 6.00; in test [2], greater than 7.00.
Regarding `CN1CCN(c2cccc(Nc3ncc4ccc(-c5cnn(CCCO)c5)n4n3)c2)CC1` [Example 976, 3-(4-{2-[3-(4-Methyl-piperazin-1-yl)-phenylamino]-pyrrolo[2,1-f][1,2,4]triazin-7-yl}-pyrazol-1-yl)-propan-1-ol], the pIC50 is 6.00 to 7.00 in test [1] and greater than 7.00 in test [2].
The corresponding values for `CN1CCN(c2cccc(Nc3ncc4ccc(-c5cnn(CCC#N)c5)n4n3)c2)CC1` [Example 977, 3-(4-{2-[3-(4-Methyl-piperazin-1-yl)-phenylamino]-pyrrolo[2,1-f][1,2,4]triazin-7-yl}-pyrazol-1-yl)-propionitrile] are 6.00 to 7.00 and greater than 7.00.
The corresponding values for `CN1CCN(c2cccc(Nc3ncc4ccc(-c5cnn(CC(N)=O)c5)n4n3)c2)CC1` [Example 978, 2-(4-{2-[3-(4-Methyl-piperazin-1-yl)-phenylamino]-pyrrolo[2,1-f][1,2,4]triazin-7-yl}-pyrazol-1-yl)-acetamide] are 6.00 to 7.00 and greater than 7.00.
Regarding `COc1ccc(-c2ccc3cnc(Nc4ccc5c(c4)NC(=O)CC5)nn23)cn1` [Example 979, 7-[7-(6-Methoxy-pyridin-3-yl)-pyrrolo[2,1-f][1,2,4]triazin-2-ylamino]-3,4-dihydro-1H-quinolin-2-one], the pIC50 is 5.00 to 6.00 in test [1] and greater than 7.00 in test [2].
As to `COc1ccc(-c2ccc3cnc(Nc4ccc5c(c4)N(C)CCC5)nn23)cn1` [Example 980, [7-(6-Methoxy-pyridin-3-yl)-pyrrolo[2,1-f][1,2,4]triazin-2-yl]-(1-methyl-1,2,3,4-tetrahydro-quinolin-7-yl)-amine], the pIC50 is less than 5.00 in test [1] and greater than 7.00 in test [2].
The corresponding values for `COc1ccccc1-c1ccc2cnc(Nc3ccc4c(c3)NC(=O)CC4)nn12` [Example 981, 7-[7-(2-Methoxy-phenyl)-pyrrolo[2,1-f][1,2,4]triazin-2-ylamino]-3,4-dihydro-1H-quinolin-2-one] are 6.00 to 7.00 and greater than 7.00.
In the same order, the values of `COc1ccccc1-c1ccc2cnc(Nc3ccc4c(c3)N(C)CCC4)nn12` [Example 982, [7-(2-Methoxy-phenyl)-pyrrolo[2,1-f][1,2,4]triazin-2-yl]-(1-methyl-1,2,3,4-tetrahydro-quinolin-7-yl)-amine] are 5.00 to 6.00 and greater than 7.00.
The corresponding values for `COc1ccc(-c2ccc3cnc(Nc4cc5c(cc4F)CCC(=O)N5)nn23)cn1` [Example 983, 6-Fluoro-7-[7-(6-methoxy-pyridin-3-yl)-pyrrolo[2,1-f][1,2,4]triazin-2-ylamino]-3,4-dihydro-1H-quinolin-2-one] are less than 5.00 and greater than 7.00.
On to `COc1ccc(-c2ccc3cnc(Nc4ccc5c(c4)CN(CC(N)=O)CC5)nn23)cn1` [Example 986, 2-{7-[7-(6-Methoxy-pyridin-3-yl)-pyrrolo[2,1-f][1,2,4]triazin-2-ylamino]-3,4-dihydro-1H-isoquinolin-2-yl}-acetamide], for which the pIC50 is 5.00 to 6.00 in test [1] and greater than 7.00 in test [2].
The corresponding values for `COc1ccccc1-c1ccc2cnc(Nc3ccc4c(c3)CN(CC(N)=O)CC4)nn12` [Example 987, 2-{7-[7-(2-Methoxy-phenyl)-pyrrolo[2,1-f][1,2,4]triazin-2-ylamino]-3,4-dihydro-1H-isoquinolin-2-yl}-acetamide] are 6.00 to 7.00 and greater than 7.00.
Consider `COCCNc1cccc(-c2ccc3cnc(Nc4cccc(NC(C)=O)c4)nn23)c1` [Example 988, N-(3-{7-[3-(2-Methoxy-ethylamino)-phenyl]-pyrrolo[2,1-f][1,2,4]triazin-2-ylamino}-phenyl)-acetamide], for which the results for the pIC50 in test [1] and in test [2] were 5.00 to 6.00 and greater than 7.00, respectively.
For the compound `COc1cc2c(cc1Nc1ncc3ccc(-c4ccccc4OC)n3n1)CCN(C[C@@H](C)O)CC2` [Example 991, (R)-1-{7-Methoxy-8-[7-(2-methoxy-phenyl)-pyrrolo[2,1-f][1,2,4]triazin-2-ylamino]-1,2,4,5-tetrahydro-benzo[d]azepin-3-yl}-propan-2-ol], the results for the pIC50 in test [1] and in test [2] were greater than 7.00 and 6.00 to 7.00, respectively.
In the same order, the values of `COc1cc2c(cc1Nc1ncc3ccc(-c4ccccc4N(C)S(C)(=O)=O)n3n1)CCCC(N1CCOCC1)C2` (stereo not drawn) [Example 993, N-{2-[2-(3-Methoxy-6-morpholin-4-yl-6,7,8,9-tetrahydro-5H-benzocyclohepten-2-ylamino)-pyrrolo[2,1-f][1,2,4]triazin-7-yl]-phenyl}-N-methyl-methanesulfonamide] are greater than 7.00 and 6.00 to 7.00.
Turning to `COc1cc(N2CCN(c3ccccn3)CC2)ccc1Nc1ncc2ccc(-c3ccccc3OC)n2n1` [Example 994, [7-(2-Methoxy-phenyl)-pyrrolo[2,1-f][1,2,4]triazin-2-yl]-[2-methoxy-4-(4-pyridin-2-yl-piperazin-1-yl)-phenyl]-amine], the pIC50 in test [1] and in test [2] was 6.00 to 7.00 throughout.
For the compound `CCN1CCOC(c2ccc(Nc3ncc4ccc(-c5ccccc5N(C)S(C)(=O)=O)n4n3)cc2)C1` (stereo not drawn) [Example 995, N-(2-{2-[4-(4-Ethyl-morpholin-2-yl)-phenylamino]-pyrrolo[2,1-f][1,2,4]triazin-7-yl}-phenyl)-N-methyl-methanesulfonamide], the pIC50 in test [1] and in test [2] was greater than 7.00 in each case.
As to `COc1cc2c(cc1Nc1ncc3ccc(-c4ccccc4N(C)S(C)(=O)=O)n3n1)CCC1(CCN(C)CC1)O2` [Example 996, N-(2-{2-[(7-methoxy-1′-methyl-3,4-dihydrospiro[chromene-2,4′-piperidin]-6-yl)amino]pyrrolo[2,1-f][1,2,4]triazin-7-yl}phenyl)-N-methylmethanesulfonamide], the results for the pIC50 in test [1] and in test [2] were greater than 7.00 and 5.00 to 6.00, respectively.
The corresponding values for `COc1cc2c(cc1Nc1ncc3ccc(-c4ccccc4OC)n3n1)CCC1(CCN(C)CC1)O2` [Example 997, 7-methoxy-N-[7-(2-methoxyphenyl)pyrrolo[2,1-f][1,2,4]triazin-2-yl]-1′-methyl-3,4-dihydrospiro[chromene-2,4′-piperidin]-6-amine] are greater than 7.00 and 6.00 to 7.00.
In the same order, the values of `COc1cc(OC2CCN(C)CC2)ccc1Nc1ncc2ccc(-c3ccccc3OC)n2n1` [Example 998, [2-Methoxy-4-(1-methyl-piperidin-4-yloxy)-phenyl]-[7-(2-methoxy-phenyl)-pyrrolo[2,1-f][1,2,4]triazin-2-yl]-amine] are greater than 7.00 and greater than 7.00.
